From PubChem BioAssay (NCI)
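1) Cells in 96-well plates. 2) Compound, 48 h, 5 concentrations. 3) Linear interpolation between surrounding doses. 4) Unreached endpoint = highest concentration. The concentration for 50% growth inhibition is given as GI50. TGI: total growth inhibition.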

Key:
Assay in all cases: NCI tumour cell line growth inhibition, 48 h
SW-620 colon = tested on: SW-620 colon
SN12C renal = tested on: SN12C renal
SK-MEL-2 melanoma = tested on: SK-MEL-2 melanoma
NCI-H23 lung = tested on: NCI-H23 lung
SNB-19 CNS = tested on: SNB-19 CNS
HCT-15 colon = tested on: HCT-15 colon
SNB-75 CNS = tested on: SNB-75 CNS
HCT-116 colon = tested on: HCT-116 colon
NCI-H226 lung = tested on: NCI-H226 lung
PC-3 prostate = tested on: PC-3 prostate

SMILES	TGI (SW-620 colon) [µM]	TGI (SN12C renal) [µM]	TGI (SK-MEL-2 melanoma) [µM]	TGI (NCI-H23 lung) [µM]	TGI (SNB-19 CNS) [µM]	TGI (HCT-15 colon) [µM]	TGI (SNB-75 CNS) [µM]	TGI (HCT-116 colon) [µM]	TGI (NCI-H226 lung) [µM]	GI50 (SW-620 colon) [µM]	GI50 (SN12C renal) [µM]	GI50 (NCI-H23 lung) [µM]	GI50 (SNB-19 CNS) [µM]	GI50 (PC-3 prostate) [µM]	TGI (PC-3 prostate) [µM]	GI50 (HCT-15 colon) [µM]	GI50 (SNB-75 CNS) [µM]	GI50 (HCT-116 colon) [µM]	GI50 (NCI-H226 lung) [µM]	GI50 (SK-MEL-2 melanoma) [µM]
CC[C@H]1CNC(=O)CC1CC(=O)OC (stereo partly specified)	> 100	> 100	> 100	> 100	> 100	> 100	> 100	> 100	> 100											
Cc1c(Cl)ccc2[s+]snc12	52.2	57.3	77.3	> 100	> 100	> 100	> 100	59	> 100											
C[C@H](O)CCC(=O)c1ccoc1	> 100	> 100	> 100	> 100	> 100	> 100	> 100	> 100	> 100											
Cc1nc2ccccc2c(=O)n1/N=C(\N=Nc1ccc(Cl)cc1)c1ccc(N(C)C)cc1	> 100	> 100		> 100	> 100	> 100		> 100												
N#CC1(C2CC(=O)N(c3ccccc3)C2=O)CCCCC1=O (stereo unspecified)	> 100	> 100		> 100	> 100	> 100	> 100		> 100											
O=C(Nc1cc(Cl)ccc1Cl)c1cc2ccccc2oc1=O	> 100	> 100	> 100	> 100		> 100	62.9	> 100												
CC1(C)OC2OC(/C=C/[N+](=O)[O-])C3OC(C)(C)OC3C2O1 (stereo unspecified)	9.46	31.1	32.6	37.6	33.5	5.43	34.8	23	37.1											
CCCCCCCCCCCCCCCCCCCCCCC(=O)N[C@H]1CCc2cc(OC)c(OC)c(OC)c2-c2ccc(SC)c(=O)cc21	> 100	> 100		62.2	> 100	71	58.2	69.3	8.23											
COC(=O)N1C=Cc2c(c(C)c3c([nH]c4ccccc43)c2C)C1C (stereo unspecified)	38.9		34	36.2	35.6	26.4	47.8	25.6	35.7											
Cc1cc2c(=O)cc(-c3ccncc3)oc2c(C(N)=O)c1C	> 100	> 100	> 100	> 100	> 100	> 100	> 100	> 100	> 100											
O=C1C(=C2C(=O)c3ccccc3[N+]2=O)N([O-])c2ccccc21	47.5			77.7	> 100		83.8		81.4											
O=C(CNC(=O)c1cccc2ccccc12)Nc1ccccc1Oc1ccc(O)cc1	> 25	> 25		> 25	> 25	> 25	> 25	> 25	> 25	0.911	2.19	2.16	1.42	1.31	> 25	0.909	0.591	0.978	4.74	
CC(=O)NNc1nc(C)c(C(=O)NNC(=O)C(=O)Nc2ccc(C)cc2[N+](=O)[O-])s1	> 100	> 100	> 100	> 100	> 100	> 100	> 100	> 100	> 100											
CCCCP1(=O)C=CC(Cl)=C(C)C1 (stereo unspecified)	> 100	> 100	> 100	> 100		> 100		> 100												
C=CN(C(=O)N1CCN(c2cc3c(cc2F)c(=O)c(C(=O)O)cn3C2CC2)CC1)c1nc(-c2ccc(C)cc2)cs1	> 100	> 100		16.1	> 100	> 100	6.59	> 100	> 100	4.5	3.46	3.12	4.16	0.376	6.52	2.96	2.13	0.319	2.91	
C=C1C(=O)O[C@H]2[C@H]1CC/C(COC(=O)NCc1ccc(Cn3c(=O)sn(CCCI)c3=O)cc1)=C\CC[C@@]1(C)O[C@@H]21	3.17	3.62	7.19	4.91	13.8	3.68		2.57	37.7	1.4	1.57	2.11	3.12	1.94	4.4	1.89		1.05	14.1	2.42
COc1cc(/C=C(\C#N)C(=O)c2ccccc2)cc(OC)c1OC	> 100	> 100	> 100	> 100	> 100	> 100	> 100	> 100	> 100											
CC(=O)Nc1ccc(/C=C/C(=O)c2sc(-n3nc(-c4ccccc4)cc3-c3ccccc3)nc2C)cc1	> 100	> 100	> 100	> 100	> 100		> 100	> 100	> 100	> 100	> 100	> 100	> 100				> 100	> 100	> 100	> 100
CCc1cccc(CC)c1NC1=CC(=O)C(=O)c2ccccc21	31.7	76.5	35.9	3.02	63.3	57.7	49.3	34.8	88.5											
COc1cc(C(=O)N[C@@H]2CCCN(C)C2)ccc1Nc1ncc2c(n1)N(C1CCCC1)CC(C)(C)C(=O)N2C	16.7	16.6		3.01	20.4	14	4.74	5.21	21.9	0.0347	0.347	0.041	0.23	0.0646	19.9	0.38	0.134	0.0509	0.633	
O=P(c1ccccc1)(c1ccccc1)C1CC=C2CCCCCC2C1 (stereo unspecified)	> 10	> 100	81.6	> 100	81.6	> 100	62.7	40.3	81.1											
